Results reported in PubChem BioAssay AID624452 (Sanford-Burnham Center for Chemical Genomics, 2012).

Test system: human liver microsomes, compound remaining, LC-MS
Test: metabolic stability in human liver microsomes, ADME assay, biochemical, with and without NADPH, LC-MS, set 2 (AID 624452);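 note: compound left measured after 60 min microsomal incubation at 37 °C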
Settings: at 1 µM; for percent remaining without NADPH: measured here: stability without NADPH control

percent remaining with NADPH [%] | percent remaining without NADPH [%] | Structure (SMILES)
64.4 | 68 | O=S1(=O)Nc2c(ccc3cccnc23)-c2ccccc21
49.2 | 76.4 | CC(C)C(=O)NC(c1ccco1)c1ccc2cccnc2c1O (stereo not given)
5.35 | 79.3 | COc1ccc(OC)c(-c2nnc3n2N=C(c2ccc(OC)c(OC)c2)CS3)c1
25.2 | 74.8 | Cc1cc(-c2nnc3n2CCCCC3)c(C)n1-c1ccccc1
47.2 | 78.5 | O=C(CSc1cccc2cccnc12)N1CCCC1
30.9 | 58 | Cc1ccccc1N1CCN(c2ncnc3c2cnn3Cc2ccc(Cl)cc2)CC1
13.4 | 79.4 | Cc1cc(C)nc(-n2nc(C)c(Sc3ccc(F)cc3)c2N)n1
37.9 | 70 | Cc1cccc(-n2cnc3cc(C(=O)N4CCCCC4)ccc32)c1
31.1 | 79.8 | c1ccc(-c2nnc(N3CCOCC3)nc2-c2ccccc2)cc1
21 | 79.3 | Cc1ccc(S(=O)(=O)n2c(N)nc3ccccc32)cc1
